Measurements published in US8034822B2, “Glucokinase activators” (Takeda San Diego, Inc., priority 2006, dated 2011).

Target: T1, glucokinase (GK) (Homo sapiens, UniProt P35557)
T1 construct: I.D. No. 1 corresponds to residues 12-465 of glucokinase; made in house; host or cells: E. coli DH10b-T1r, pFLAG-CTC plasmid
T1 sequence (P35557 with tags, fused parts or gaps isoform P35557-2): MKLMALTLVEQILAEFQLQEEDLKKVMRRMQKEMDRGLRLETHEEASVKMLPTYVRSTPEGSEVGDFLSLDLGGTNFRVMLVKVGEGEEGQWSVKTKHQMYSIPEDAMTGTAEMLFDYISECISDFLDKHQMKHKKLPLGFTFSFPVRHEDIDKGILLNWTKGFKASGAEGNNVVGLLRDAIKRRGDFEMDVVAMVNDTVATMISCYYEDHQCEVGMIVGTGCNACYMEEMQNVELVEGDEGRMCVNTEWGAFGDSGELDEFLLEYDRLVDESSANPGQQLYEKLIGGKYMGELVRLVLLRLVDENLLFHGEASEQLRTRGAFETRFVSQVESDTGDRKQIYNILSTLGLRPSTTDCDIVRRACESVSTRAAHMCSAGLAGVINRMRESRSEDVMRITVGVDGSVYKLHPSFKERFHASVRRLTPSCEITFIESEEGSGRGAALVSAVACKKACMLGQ
Assay: enzymatic glucokinase activity assay (ATP consumption, KinaseGlo luminescence)
Type: biochemical
Conditions: Against GK; Kact = concentration giving 50% of maximal increase in GK activity; 5 μM ATP, 5 mM Glucose, 60 min room temperature; values given as bins; read-out: pKact
Source text: The activity of compounds as glucokinase activators may be assayed in vitro, in vivo or in a cell line. Provided below is an enzymatic glucokinase activity assay.
Purified glucokinase may be obtained as follows. DNA encoding residues 12-465 of the full-length sequence of the human enzyme may be amplified by PCR and cloned into the HindIII and EcoRI sites of pFLAG-CTC (Sigma). SEQ. I.D. No. 1 corresponds to residues 12-465 of glucokinase.
The expression of recombinant glucokinase protein may be carried out by transformation and growth of DH10b-T1r E. coli cells incorporating the (pFLAG-CTC) plasmid in LB media. Protein expression can be induced in this system by the addition of IPTG to the culture medium.
Recombinant protein may be isolated from cellular extracts by passage over Sepharose Q Fast Flow resin (Pharmacia). This partially purified GK extract may then be further purified by a second passage over Poros HQ10 (Applied Biosystems). The purity of GK may be determined on denaturing SDS-PAGE gel. Purified GK may then be concentrated to a final concentration of 20.0 mg/ml. After flash freezing in liquid nitrogen, the proteins can be stored at −78° C. in a buffer containing 25 mM TRIS-HCl pH 7.6, 50 mM NaCl, and 0.5 mM TCEP.
The activation properties of compounds for GK may be determined using a black 384-well-plate format under the following reaction conditions: 25 mM Hepes pH 7.2, 25 mM NaCl, 10 mM MgCl2, 0.01% Brij35, 1 mM DTT, 5 μM ATP, 5 mM Glucose 2% DMSO. The amount of ATP consumed may be determined quantitatively by addition of equal volume of luciferase reagent (luciferase+beetle luciferin—KinaseGlo Luminescent Kinase Assay kit from Promega). The luminescence intensity may be measured by using the Analyst HT from LJL Biosystems.
The assay reaction may be initiated as follows: 4 μl of substrate mixture (12.5 μM ATP and 12.5 mM Glucose) was added to each well of the plate, followed by the addition of 2 μl of activator (2 fold serial dilutions for 11 data points for each activator) containing 10% DMSO. 4 μL of 1.25 nM GK solution may be added to initiate the reaction. The reaction mixture may then be incubated at room temperature for 60 min, and quenched and developed by addition of 10 μL of luciferase reagent. Luminescence intensities of the resulting reaction mixtures may be measured after a 10 min incubation at room temperature. The luminescence intensity may be measured by using the Analyst HT from LJL Biosystems.
pKact and % ACTmax values may be calculated by non-linear curve fitting of the compound concentrations and luminescence intensities to a standard inhibition/activation equation.

| EC50 | Compound |
| --- | --- |
| 1000 to 1580 nM | COC(=O)c1ccc(NC(=O)[C@H](CC2CCCCC2)n2cnc3c(C(F)(F)F)cccc3c2=O)nc1 [Compound 210, (S)-methyl 6-(3-cyclohexyl-2-(4-oxo-8-(trifluoromethyl)quinazolin-3(4H)-yl)propanamido)nicotinate] |
| 1000 to 1580 nM | CS(=O)(=O)c1csc2c(=O)n(C(CC3CCCCC3)C(=O)Nc3ccc(C(N)=O)cn3)cnc12 (stereo not drawn) [Compound 182, 6-(3-cyclohexyl-2-(7-(methylsulfonyl)-4-oxothieno[3,2-d]pyrimidin-3(4H)-yl)propanamido)nicotinamide] |
| ≤ 398 nM | NC(=O)c1ccc(NC(=O)C(CC2CCCCC2)n2cnc3cc(S(=O)(=O)C4CCCC4)ccc3c2=O)nc1 (stereo not drawn) [Compound 80, 6-[3-Cyclohexyl-2-(7-cyclopentanesulfonyl-4-oxo-4H-quinazolin-3-yl)-propionylamino]-nicotinamide] |
| ≤ 398 nM | O=C(NC1CC1)c1ccc2c(=O)n(C(CC3CCCCC3)C(=O)Nc3ccc(Cl)cn3)cnc2c1 (stereo not drawn) [Compound 171, 3-(1-(5-chloropyridin-2-ylamino)-3-cyclohexyl-1-oxopropan-2-yl)-N-cyclopropyl-4-oxo-3,4-dihydroquinazoline-7-carboxamide] |
| 501 to 794 nM | CS(=O)(=O)c1ccc2c(=O)n(C(CC3CCCCC3)C(=O)Nc3ccc(C(N)=O)cn3)cnc2c1 (stereo not drawn) [Compound 158, 6-(3-cyclohexyl-2-(7-(methylsulfonyl)-4-oxoquinazolin-3(4H)-yl)propanamido)nicotinamide] |
| ≥ 2000 nM | O=C(NC1CC1)c1ccc2c(=O)n(C(CC3CCCCC3)C(=O)Nc3ccc(F)cn3)c(=O)[nH]c2c1 (stereo not drawn) [Compound 119, 3-(3-cyclohexyl-1-(5-fluoropyridin-2-ylamino)-1-oxopropan-2-yl)-N-cyclopropyl-2,4-dioxo-1,2,3,4-tetrahydroquinazoline-7-carboxamide] |
| ≥ 2000 nM | CS(=O)(=O)c1ccc2c(=O)n(C(CC3CCCCC3)C(=O)Nc3ccc(C(=O)O)cn3)cnc2c1 (stereo not drawn) [Compound 65, 6-[3-Cyclohexyl-2-(7-methanesulfonyl-4-oxo-4H-quinazolin-3-yl)-propionylamino]-nicotinic acid] |
| 501 to 794 nM | O=C(Nc1ccc2ccccc2n1)C(CC1CCCCC1)n1cnc2ccc(F)cc2c1=O (stereo not drawn) [Compound 195, 3-cyclohexyl-2-(6-fluoro-4-oxoquinazolin-3(4H)-yl)-N-(quinolin-2-yl)propanamide] |
| ≤ 398 nM | COC(=O)c1ccc(NC(=O)[C@@H](CC2CCCCC2)n2cnc3c(C(F)(F)F)cccc3c2=O)nc1 [Compound 211, (R)-methyl 6-(3-cyclohexyl-2-(4-oxo-8-(trifluoromethyl)quinazolin-3(4H)-yl)propanamido)nicotinate] |
| ≥ 2000 nM | CS(=O)(=O)c1ccc2c(=O)n(C(CC3CCCCC3)C(=O)Nc3ccc(C#N)cn3)cnc2c1 (stereo not drawn) [Compound 166, N-(5-cyanopyridin-2-yl)-3-cyclohexyl-2-(7-(methylsulfonyl)-4-oxoquinazolin-3(4H)-yl)propanamide] |
| ≥ 2000 nM | Cc1ccc(NC(=O)C(CC2CCCCC2)n2cnc3ccc(F)cc3c2=O)nc1 (stereo not drawn) [Compound 192, 3-cyclohexyl-2-(6-fluoro-4-oxoquinazolin-3(4H)-yl)-N-(5-methylpyridin-2-yl)propanamide] |
| 501 to 794 nM | O=C(NC1CC1)c1ccc2c(=O)n(C(CC3CCCCC3)C(=O)Nc3ncc(Cl)s3)c(=O)[nH]c2c1 (stereo not drawn) [Compound 172, 3-(1-(5-chlorothiazol-2-ylamino)-3-cyclohexyl-1-oxopropan-2-yl)-N-cyclopropyl-2,4-dioxo-1,2,3,4-tetrahydroquinazoline-7-carboxamide] |
| 501 to 794 nM | CC(C)S(=O)(=O)c1ccc2ncn(C(CC3CCCCC3)C(=O)Nc3ccc(Cl)cn3)c(=O)c2c1 (stereo not drawn) [Compound 84, N-(5-Chloro-pyridin-2-yl)-3-cyclohexyl-2-[4-oxo-6-(propane-2-sulfonyl)-4H-quinazolin-3-yl]-propionamide] |
| ≥ 2000 nM | CS(=O)(=O)c1ccc2c(=O)n(C(CC3CCCCC3)C(=O)Nc3ccc(C(=O)O)cn3)c(=O)[nH]c2c1 (stereo not drawn) [Compound 64, 6-[3-Cyclohexyl-2-(7-methanesulfonyl-2,4-dioxo-1,4-dihydro-2H-quinazolin-3-yl)-propionylamino]-nicotinic acid] |
| 1000 to 1580 nM | CN(C)CCNC(=O)c1ccc2c(=O)n(C(CC3CCCCC3)C(=O)Nc3ncc(Cl)s3)cnc2c1 (stereo not drawn) [Compound 176, 3-(1-(5-chlorothiazol-2-ylamino)-3-cyclohexyl-1-oxopropan-2-yl)-N-(2-(dimethylamino)ethyl)-4-oxo-3,4-dihydroquinazoline-7-carboxamide] |
| 1000 to 1580 nM | CS(=O)(=O)c1csc2c(=O)n(C(CC3CCCCC3)C(=O)Nc3ccc(Cl)cn3)cnc12 (stereo not drawn) [Compound 184, N-(5-chloropyridin-2-yl)-3-cyclohexyl-2-(7-(methylsulfonyl)-4-oxothieno[3,2-d]pyrimidin-3(4H)-yl)propanamide] |
| ≥ 2000 nM | Cc1cnc(NC(=O)C(CC2CCCCC2)n2cnc3cc(S(C)(=O)=O)ccc3c2=O)s1 (stereo not drawn) [Compound 61, 3-Cyclohexyl-2-(7-methanesulfonyl-4-oxo-4H-quinazolin-3-yl)-N-(5-methyl-thiazol-2-yl)-propionamide] |
| 1000 to 1580 nM | CS(=O)(=O)c1ccc2c(=O)n(C(Cc3c(F)cccc3F)C(=O)Nc3ccc(Cl)cn3)cnc2c1 (stereo not drawn) [Compound 77, N-(5-Chloro-pyridin-2-yl)-3-(2,6-difluoro-phenyl)-2-(7-methanesulfonyl-4-oxo-4H-quinazolin-3-yl)-propionamide] |
| 501 to 794 nM | O=C(NC1CC1)c1ccc2c(=O)n(C(CC3CCCCC3)C(=O)Nc3ccc(F)cn3)cnc2c1 (stereo not drawn) [Compound 118, 3-(3-Cyclohexyl-1-(5-fluoropyridin-2-ylamino)-1-oxopropan-2-yl)-N-cyclopropyl-4-oxo-3,4-dihydroquinazoline-7-carboxamide] |
| 1000 to 1580 nM | O=C(Nc1ncc(Cl)s1)C(CC1CCCCC1)n1cnc2ccc(Cl)cc2c1=O (stereo not drawn) [Compound 47, 2-(6-Chloro-4-oxo-4H-quinazolin-3-yl)-N-(5-chloro-thiazol-2-yl)-3-cyclohexyl-propionamide] |
| 501 to 794 nM | CN1CCC(CNC(=O)c2ccc3c(=O)n(C(CC4CCCCC4)C(=O)Nc4ncc(Cl)s4)c(=O)[nH]c3c2)CC1 (stereo not drawn) [Compound 179, 3-(1-(5-chlorothiazol-2-ylamino)-3-cyclohexyl-1-oxopropan-2-yl)-N-((1-methylpiperidin-4-yl)methyl)-2,4-dioxo-1,2,3,4-tetrahydroquinazoline-7-carboxamide] |
| ≥ 2000 nM | O=C(NC1CC1)c1ccc2c(=O)n(C(CC3CCOCC3)C(=O)Nc3ncc(Cl)s3)cnc2c1 (stereo not drawn) [Compound 180, 3-(1-(5-chlorothiazol-2-ylamino)-1-oxo-3-(tetrahydro-2H-pyran-4-yl)propan-2-yl)-N-cyclopropyl-4-oxo-3,4-dihydroquinazoline-7-carboxamide] |
| ≥ 2000 nM | O=C(Nc1ncc(F)s1)C(CC1CCCCC1)n1c(=O)[nH]c2ccc(F)cc2c1=O (stereo not drawn) [Compound 57, 3-Cyclohexyl-2-(6-fluoro-2,4-dioxo-1,4-dihydro-2H-quinazolin-3-yl)-N-(5-fluoro-thiazol-2-yl)-propionamide] |
| ≥ 2000 nM | CCOC(=O)CCc1ccc(NC(=O)C(CC2CCCCC2)n2cnc3cc(S(C)(=O)=O)ccc3c2=O)nc1 (stereo not drawn) [Compound 76, 3-{6-[3-Cyclohexyl-2-(7-methanesulfonyl-4-oxo-4H-quinazolin-3-yl)-propionylamino]-pyridin-3-yl}-propionic acid ethyl ester] |
